Experimental data published in PubChem BioAssay (NCI).
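Step 1: Grow cells in 96-well plates. Step 2: Expose to compound for 48 hours at 5 concentrations. Step 3: Interpolate endpoints linearly; if unreached, use highest concentration. GI50 = concentration required for 50% inhibition of growth. TGI marks complete inhibition of growth.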

What was measured:
Experiment in all cases: growth of human tumour cells (NCI), 48 h
[1] = system: K-562 leukemia
[2] = system: OVCAR-5 ovarian
[3] = system: HS 578T breast
[4] = system: MCF7 breast
[5] = system: SW-620 colon
[6] = system: OVCAR-8 ovarian
[7] = system: NCI-H460 lung
[8] = system: ACHN renal
[9] = system: CAKI-1 renal
[10] = system: SN12C renal
[11] = system: OVCAR-3 ovarian
[12] = system: NCI-H522 lung
[13] = system: HCT-15 colon
[14] = system: IGROV1 ovarian
[15] = system: HL-60(TB) leukemia
[16] = system: EKVX NSCLC
[17] = system: SR leukemia
[18] = system: PC-3 prostate
[19] = system: SK-OV-3 ovarian
[20] = system: SK-MEL-5 melanoma
[21] = system: RPMI-8226 leukemia
[22] = system: SF-268 CNS
[23] = system: UACC-62 melanoma
[24] = system: HCT-116 colon
[25] = system: CCRF-CEM leukemia
[26] = system: HOP-92 NSCLC
[27] = system: BT-549 breast
[28] = system: T-47D breast
[29] = system: KM12 colon
[30] = system: SNB-19 CNS
[31] = system: HCC-2998 colon
[32] = system: A498 renal
[33] = system: SK-MEL-28 melanoma
[34] = system: COLO 205 colon
[35] = system: SK-MEL-2 melanoma
[36] = system: MOLT-4 leukemia
[37] = system: LOX IMVI melanoma
[38] = system: A549 NSCLC
[39] = system: UACC-257 melanoma
[40] = system: NCI-H23 lung
[41] = system: M14 melanoma
[42] = system: MALME-3M melanoma
[43] = system: NCI-H226 lung
[44] = system: UO-31 renal
[45] = system: DU-145 prostate
[46] = system: MDA-MB-435
[47] = system: SF-295 CNS
[48] = system: 786-0 renal
[49] = system: MDA-MB-231 breast
[50] = system: NCI/ADR-RES ovarian
[51] = system: TK-10 renal
[52] = system: RXF 393 renal
[53] = system: HOP-62 NSCLC
[54] = system: U251 CNS
[55] = system: SF-539 CNS
[56] = system: HT29 colon
[57] = system: SNB-75 CNS
[58] = system: OVCAR-4 ovarian

With CCCCN(CCCC)c1ccc(C(=N)c2ccc(N(CCCC)CCCC)cc2)cc1 the GI50 [1] was 287 nM, the TGI [1] was 1100 nM and the GI50 [2] was 880 nM. The TGI [2] was 2310 nM, the GI50 [3] was 539 nM and the TGI [3] was 1580 nM. The GI50 [4] was 389 nM, the TGI [4] was 1440 nM and the GI50 [5] was 306 nM. The TGI [5] was 1290 nM, the GI50 [6] was 396 nM and the TGI [6] was 1370 nM. It also gave a GI50 [7] of 773 nM, a TGI [7] of 2130 nM and a GI50 [8] of 402 nM. It also gave a TGI [8] of 1480 nM, a GI50 [9] of 535 nM and a TGI [9] of 1820 nM. The GI50 [10] was 350 nM, the TGI [10] was 1440 nM and the GI50 [11] was 283 nM. For the same compound, the TGI [11] was 946 nM, the GI50 [12] was 232 nM and the TGI [12] was 727 nM. For the same compound, the GI50 [13] was 418 nM, the TGI [13] was 1620 nM and the GI50 [14] was 1040 nM. It also gave a TGI [14] of 2660 nM, a GI50 [15] of 479 nM and a TGI [15] of 1950 nM. It also gave a GI50 [16] of 277 nM, a TGI [16] of 1150 nM and a GI50 [17] of 287 nM. For the same compound, the TGI [17] was 1040 nM, the GI50 [18] was 296 nM and the TGI [18] was 1030 nM. For the same compound, the GI50 [19] was 1190 nM, the TGI [19] was 2470 nM and the GI50 [20] was 547 nM. It also gave a TGI [20] of 1610 nM, a GI50 [21] of 396 nM and a TGI [21] of 1880 nM. The GI50 [22] was 679 nM, the TGI [22] was 1930 nM and the GI50 [23] was 369 nM. It also gave a TGI [23] of 1500 nM, a GI50 [24] of 339 nM and a TGI [24] of 1310 nM. The GI50 [25] was 557 nM, the TGI [25] was 2270 nM and the GI50 [26] was 235 nM. It also gave a TGI [26] of 1460 nM, a GI50 [27] of 1420 nM and a TGI [27] of 2890 nM. It also gave a GI50 [28] of 353 nM, a TGI [28] of 1390 nM and a GI50 [29] of 334 nM. The TGI [29] was 1250 nM, the GI50 [30] was 468 nM and the TGI [30] was 1910 nM. The GI50 [31] was 442 nM, the TGI [31] was 1650 nM and the GI50 [32] was 1240 nM. For the same compound, the TGI [32] was 2560 nM, the GI50 [33] was 1050 nM and the TGI [33] was 2410 nM. For the same compound, the GI50 [34] was 322 nM, the TGI [34] was 1050 nM and the GI50 [35] was 387 nM. For the same compound, the TGI [35] was 1310 nM, the GI50 [36] was 604 nM and the TGI [36] was 2140 nM. It also gave a GI50 [37] of 313 nM, a TGI [37] of 1190 nM and a GI50 [38] of 720 nM. It also gave a TGI [38] of 2070 nM, a GI50 [39] of 561 nM and a TGI [39] of 1630 nM. It also gave a GI50 [40] of 292 nM, a TGI [40] of 1060 nM and a GI50 [41] of 672 nM. It also gave a TGI [41] of 2090 nM, a GI50 [42] of 508 nM and a TGI [42] of 2120 nM. For the same compound, the GI50 [43] was 593 nM, the TGI [43] was 1970 nM and the GI50 [44] was 320 nM. For the same compound, the TGI [44] was 1380 nM, the GI50 [45] was 651 nM and the TGI [45] was 1790 nM. For the same compound, the GI50 [46] was 642 nM, the TGI [46] was 2210 nM and the GI50 [47] was 499 nM. It also gave a TGI [47] of 1790 nM, a GI50 [48] of 847 nM and a TGI [48] of 2250 nM. For the same compound, the GI50 [49] was 759 nM, the TGI [49] was 2060 nM and the GI50 [50] was 479 nM. The TGI [50] was 1670 nM, the GI50 [51] was 453 nM and the TGI [51] was 1530 nM. The GI50 [52] was 545 nM, the TGI [52] was 1620 nM and the GI50 [53] was 748 nM. It also gave a TGI [53] of 2110 nM, a GI50 [54] of 351 nM and a TGI [54] of 1280 nM. For the same compound, the GI50 [55] was 1490 nM, the TGI [55] was 2950 nM and the GI50 [56] was 282 nM. For the same compound, the TGI [56] was 1030 nM, the GI50 [57] was 746 nM and the TGI [57] was 2140 nM. It also gave a GI50 [58] of 373 nM and a TGI [58] of 1400 nM.
